Experimental data reported in patent publication US20260276634A1, “METHOD FOR DETERMINING INTESTINAL PERMEABILITY” (BIOMEDAL, SL, priority 2023, published 2026).

Details: human, in vivo
Experimental: Specifically, subjects (n=15) received 8 g of gluten after at least 8 hours of fasting, following a gluten-free diet for at least 36 hours in individuals without diagnosed celiac disease. The gluten consisted of gluten powder with flavorings (sweeteners and food colorings) contained in single-use heat-sealed sachets. At the same time, volunteers took 1 g of mannitol and 10 g of lactulose. Subsequently, the various urines were collected in separate containers, to be able to perform individualized measurements of the concentration in each void, as well as the total volume of the urines. The amount of gluten peptides present in urine excreted for 15 hours following gluten intake was determined using the iVYCHECK urine product and a calibrated lateral flow strip reader iVYCHECK Reader (Biomedal, Spain). […]
In this example conducted with 15 volunteers without symptoms of diagnosed digestive disease, basal urine is analyzed. […] The concentrations of GIP in the excreted urines were measured, both by ELISA and LFIA between 0-6 h after intake and between 2-15 h after intake individually. The GIP concentration of each urine of each volunteer (FIG. 4) and lactulose (FIG. 5) were measured, and subsequently, the % excreted relative to the ingested GIP and the lactulose/mannitol ratio (FIG. 6) were calculated. The correlation between lactulose: mannitol and GIP was determined. […]

Row | share of detectable gluten excreted in the first 9 to 15 hours | time over which lactulose excretion occurs | Molecule
1 | > 80% | – | gluten
2 | – | > 15 h | OC[C@H]1O[C@@H](O[C@@H]2[C@@H](CO)OC(O)(CO)[C@H]2O)[C@H](O)[C@@H](O)[C@H]1O (mixture of isomers) [lactulose]
